# Data taken from patent US10093683B2, “Factor XIa inhibitors” (Merck Sharp & Dohme Corp., priority 2014, dated 2018).
# Experiments:
# human Factor XIa = human Factor XIa (Homo sapiens (Human), UniProt P03951); assay: Factor XIa Assay; type: biochemical; settings: purified human Factor XIa 40 pM, Z-Gly-Pro-Arg-AFC 100 μM, pH 7.4; read-out: FXIa Ki
# Method in brief: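 Ki derived from the dependence of Vo/Vi on inhibitor concentration under a competitive-inhibition model, after pre-equilibration of enzyme and inhibitor. Reaction: 40 pM human FXIa, 100 μM Z-Gly-Pro-Arg-AFC, HEPES 50 mM pH 7.4 with NaCl, CaCl2 and PEG 8000; run at room temperature or 37° C.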
# Human plasma kallikrein = Human plasma kallikrein (Homo sapiens (Human), UniProt P03952); assay: Kallikrein Assay; type: biochemical; settings: purified Human plasma kallikrein 0.5 nM, Acetyl-K-P-R-AFC, pH 7.4; Ki from IC50 by Cheng Prusoff
# Experimental: The effectiveness of a compound of the present invention as an inhibitor of Kallikrein can be determined using a relevant purified serine protease, and an appropriate synthetic substrate. The rate of hydrolysis of the chromogenic or fluorogenic substrate by the relevant serine protease was measured both in the absence and presence of compounds of the present invention. Assays were conducted at room temperature or at 37° C. […] A decrease in the rate of fluorescence change in the presence of inhibitor is indicative of enzyme inhibition. Such methods are known to one skilled in the art. The results of this assay are expressed as the inhibitory constant, Ki.
# Kallikrein determinations were made in 50 mM HEPES buffer at pH 7.4 containing 150 mM NaCl, 5 mM CaCl2, and 0.1% PEG 8000 (polyethylene glycol; Fisher Scientific). Determinations were made using purified Human plasma kallikrein at a final concentration of 0.5 nM (Enzyme Research Laboratories) and the synthetic substrate, Acetyl-K-P-R-AFC (Sigma #C6608) at a concentration of […].
# Times required to achieve equilibration between enzyme and inhibitor were determined in control experiments. The reactions were performed under linear progress curve conditions and fluorescence increase measured at 405 Ex/510 Em nm. […] IC50 was determined by inflection point from a four parameter logistic curve fit. Ki was calculated using the Cheng Prusoff equation, Ki=IC50/(1+([S]/Km)).
# human Factor XIa, sequence (P03951 388-625): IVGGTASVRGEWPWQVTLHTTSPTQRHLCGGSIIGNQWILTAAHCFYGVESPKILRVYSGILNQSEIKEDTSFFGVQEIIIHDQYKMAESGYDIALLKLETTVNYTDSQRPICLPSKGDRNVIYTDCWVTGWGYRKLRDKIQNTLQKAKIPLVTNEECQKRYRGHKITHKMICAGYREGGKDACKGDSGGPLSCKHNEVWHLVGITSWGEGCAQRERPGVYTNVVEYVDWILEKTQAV
# human Factor XIa, sequence (P03951 19-387 partner): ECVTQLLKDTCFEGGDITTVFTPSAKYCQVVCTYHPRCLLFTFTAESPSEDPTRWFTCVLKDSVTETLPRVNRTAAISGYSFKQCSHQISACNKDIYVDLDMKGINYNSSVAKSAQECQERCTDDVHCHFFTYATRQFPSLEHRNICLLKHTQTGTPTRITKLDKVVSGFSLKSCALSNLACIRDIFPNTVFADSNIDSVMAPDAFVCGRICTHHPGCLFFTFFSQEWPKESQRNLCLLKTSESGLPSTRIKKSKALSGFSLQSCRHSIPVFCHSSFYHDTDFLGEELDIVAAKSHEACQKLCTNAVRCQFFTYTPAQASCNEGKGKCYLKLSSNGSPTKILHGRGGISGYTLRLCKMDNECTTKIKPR
# Human plasma kallikrein, sequence (P03952 391-638): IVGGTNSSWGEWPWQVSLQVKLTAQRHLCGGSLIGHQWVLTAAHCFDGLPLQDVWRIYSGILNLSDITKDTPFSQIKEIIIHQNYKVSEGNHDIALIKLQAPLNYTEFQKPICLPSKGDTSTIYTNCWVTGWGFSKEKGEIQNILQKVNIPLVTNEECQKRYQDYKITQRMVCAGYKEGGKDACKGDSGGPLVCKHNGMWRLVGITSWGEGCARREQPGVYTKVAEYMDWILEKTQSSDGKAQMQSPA
# Human plasma kallikrein, sequence (P03952 20-390 partner): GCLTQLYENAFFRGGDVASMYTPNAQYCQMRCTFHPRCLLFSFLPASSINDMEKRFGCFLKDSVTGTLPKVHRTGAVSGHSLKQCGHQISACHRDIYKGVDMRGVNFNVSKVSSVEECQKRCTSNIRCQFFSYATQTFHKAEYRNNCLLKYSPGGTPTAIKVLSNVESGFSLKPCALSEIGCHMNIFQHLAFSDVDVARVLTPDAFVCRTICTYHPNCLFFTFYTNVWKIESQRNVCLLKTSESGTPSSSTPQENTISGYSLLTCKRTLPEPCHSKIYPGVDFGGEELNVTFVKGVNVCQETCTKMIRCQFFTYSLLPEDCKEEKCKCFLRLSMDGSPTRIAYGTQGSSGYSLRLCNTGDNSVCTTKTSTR
smiles,measurement,setting,value
"COC(=O)Nc1ccc(C(=O)N[C@@H](Cc2ccc(F)c(F)c2)C(=O)N2CCC3(C2)OC(=O)Nc2ccc(Cl)cc23)cc1 (stereo partly drawn) [Example 27, methyl (4-(((2S)-1-(6-chloro-2-oxo-1,2-dihydrospiro[benzo[d][1,3]oxazine-4,3′-pyrrolidin]-1′-yl)-3-(3,4-difluorophenyl)-1-oxopropan-2-yl)carbamoyl)phenyl)carbamate]",Ki,human Factor XIa,14.3 nM
same,Ki,Human plasma kallikrein,32.6 nM
"COC(=O)Nc1ccc(C(=O)N[C@@H](Cc2cncn2C)C(=O)N2CCC3(C2)OC(=O)Nc2ccc(Cl)cc23)cc1 (stereo partly drawn) [Example 30, methyl (4-(((2S)-1-(6-chloro-2-oxo-1,2-dihydrospiro[benzo[d][1,3]oxazine-4,3′-pyrrolidin]-1′-yl)-3-(1-methyl-1H-imidazol-5-yl)-1-oxopropan-2-yl)carbamoyl)phenyl)carbamate]",Ki,human Factor XIa,17.6 nM
same,Ki,Human plasma kallikrein,37 nM
"COC(=O)Nc1ccc(C(=O)N[C@@H](Cn2cccn2)C(=O)N2CCC3(C2)OC(=O)Nc2ccc(Cl)cc23)cc1 (stereo partly drawn) [Example 31, methyl (4-(((2S)-1-(6-chloro-2-oxo-1,2-dihydrospiro[benzo[d][1,3]oxazine-4,3′-pyrrolidin]-1′-yl)-1-oxo-3-(1H-pyrazol-1-yl)propan-2-yl)carbamoyl)phenyl)carbamate]",Ki,human Factor XIa,26 nM
same,Ki,Human plasma kallikrein,77.3 nM
"COC(=O)Nc1ccc(C(=O)N[C@@H](Cc2ccsc2)C(=O)N2CCC3(C2)OC(=O)Nc2ccc(Cl)cc23)cc1 (stereo partly drawn) [Example 32, methyl (4-(((2S)-1-(6-chloro-2-oxo-1,2-dihydrospiro[benzo[d][1,3]oxazine-4,3′-pyrrolidin]-1′-yl)-1-oxo-3-(thiophen-3-yl)propan-2-yl)carbamoyl)phenyl)carbamate]",Ki,human Factor XIa,16 nM
same,Ki,Human plasma kallikrein,42.2 nM
"COC(=O)Nc1ccc(C(=O)N[C@@H](Cc2ccc(O)cc2)C(=O)N2CCC3(C2)OC(=O)Nc2ccc(Cl)cc23)cc1 (stereo partly drawn) [Example 35, methyl (4-(((2S)-1-(6-chloro-2-oxo-1,2-dihydrospiro[benzo[d][1,3]oxazine-4,3′-pyrrolidin]-1′-yl)-3-(4-hydroxyphenyl)-1-oxopropan-2-yl)carbamoyl)phenyl)carbamate]",Ki,human Factor XIa,3.28 nM
same,Ki,Human plasma kallikrein,24.6 nM
"COCC[C@H](NC(=O)c1ccc(NC(=O)OC)cc1)C(=O)N1CCC[C@@]2(C1)OC(=O)Nc1ccc(Cl)cc12 [Example 37, methyl (4-(((S)-1-((R)-6-chloro-2-oxo-1,2-dihydrospiro[benzo[d][1,3]oxazine-4,3′-piperidin]-1′-yl)-4-methoxy-1-oxobutan-2-yl)carbamoyl)phenyl)carbamate]",Ki,human Factor XIa,9.21 nM
same,Ki,Human plasma kallikrein,2.68 nM
"COC(=O)Nc1ccc(C(=O)N[C@@H](CO)C(=O)N2CCC[C@@]3(C2)OC(=O)Nc2ccc(Cl)cc23)cc1 [Example 38, methyl (4-(((S)-1-((R)-6-chloro-2-oxo-1,2-dihydrospiro[benzo[d][1,3]oxazine-4,3′-piperidin]-1′-yl)-3-hydroxy-1-oxopropan-2-yl)carbamoyl)phenyl)carbamate]",Ki,human Factor XIa,49.9 nM
same,Ki,Human plasma kallikrein,9.45 nM
"COC(=O)Nc1ccc(C(=O)N[C@@H](Cc2ccc(C(=O)c3ccccc3)cc2)C(=O)N2CCC3(C2)OC(=O)Nc2ccc(Cl)cc23)cc1 (stereo partly drawn) [Example 39, methyl (4-(((2S)-3-(4-benzoylphenyl)-1-(6-chloro-2-oxo-1,2-dihydrospiro[benzo[d][1,3]oxazine-4,3′-pyrrolidin]-1′-yl)-1-oxopropan-2-yl)carbamoyl)phenyl)carbamate]",Ki,human Factor XIa,39.3 nM
same,Ki,Human plasma kallikrein,86.6 nM
"COC(=O)Nc1ccc(C(=O)N[C@@H](Cc2cscn2)C(=O)N2CCC3(C2)OC(=O)Nc2ccc(Cl)cc23)cc1 (stereo partly drawn) [Example 40, methyl (4-(((2S)-1-(6-chloro-2-oxo-1,2-dihydrospiro[benzo[d][1,3]oxazine-4,3′-pyrrolidin]-1′-yl)-1-oxo-3-(thiazol-4-yl)propan-2-yl)carbamoyl)phenyl)carbamate]",Ki,human Factor XIa,52.4 nM
same,Ki,Human plasma kallikrein,116 nM
"COC(=O)Nc1ccc(C(=O)N[C@@H](Cc2sccc2F)C(=O)N2CCC3(C2)OC(=O)Nc2ccc(Cl)cc23)cc1 (stereo partly drawn) [Example 43, methyl (4-(((2S)-1-(6-chloro-2-oxo-1,2-dihydrospiro[benzo[d][1,3]oxazine-4,3′-pyrrolidin]-1′-yl)-3-(3-fluorothiophen-2-yl)-1-oxopropan-2-yl)carbamoyl)phenyl)carbamate]",Ki,human Factor XIa,17.7 nM
same,Ki,Human plasma kallikrein,42.5 nM
"COC(=O)Nc1ccc(C(=O)N[C@@H](Cc2ccc(OC3CCCC3)cc2)C(=O)N2CCC3(C2)OC(=O)Nc2ccc(Cl)cc23)cc1 (stereo partly drawn) [Example 44, methyl (4-(((2S)-1-(6-chloro-2-oxo-1,2-dihydrospiro[benzo[d][1,3]oxazine-4,3′-pyrrolidin]-1′-yl)-3-(4-(cyclopentyloxy)phenyl)-1-oxopropan-2-yl)carbamoyl)phenyl)carbamate]",Ki,human Factor XIa,70 nM
same,Ki,Human plasma kallikrein,< 1.3 nM
"COC(=O)Nc1ccc(C(=O)N[C@@H](Cc2ccc(C#N)cc2)C(=O)N2CCC[C@@]3(C2)OC(=O)Nc2ccc(Cl)cc23)cc1 [Example 45, methyl (4-(((S)-1-((R)-6-chloro-2-oxo-1,2-dihydrospiro[benzo[d][1,3]oxazine-4,3′-piperidin]-1′-yl)-3-(4-cyanophenyl)-1-oxopropan-2-yl)carbamoyl)phenyl)carbamate]",Ki,human Factor XIa,5.55 nM
same,Ki,Human plasma kallikrein,< 1.3 nM
"COC(=O)Nc1ccc(C(=O)N[C@@H](Cc2ccc(C(N)=O)cc2)C(=O)N2CCC[C@@]3(C2)OC(=O)Nc2ccc(Cl)cc23)cc1 [Example 47, methyl (4-(((S)-3-(4-carbamoylphenyl)-1-((R)-6-chloro-2-oxo-1,2-dihydrospiro[benzo[d][1,3]oxazine-4,3′-piperidin]-1′-yl)-1-oxopropan-2-yl)carbamoyl)phenyl)carbamate]",Ki,human Factor XIa,0.55 nM
same,Ki,Human plasma kallikrein,< 1.3 nM
"COC(=O)Nc1ccc(C(=O)N[C@@H](Cc2ccc(NC(C)=O)cc2)C(=O)N2CCC[C@@]3(C2)OC(=O)Nc2ccc(Cl)cc23)cc1 [Example 48, methyl (4-(((S)-3-(4-acetamidophenyl)-1-((R)-6-chloro-2-oxo-1,2-dihydrospiro[benzo[d][1,3]oxazine-4,3′-piperidin]-1′-yl)-1-oxopropan-2-yl)carbamoyl)phenyl)carbamate]",Ki,human Factor XIa,2.01 nM
same,Ki,Human plasma kallikrein,1.27 nM
"COC(=O)Nc1ccc(C(=O)N[C@@H](Cc2ccc3ccccc3c2)C(=O)N2CCC3(C2)OC(=O)Nc2ccc(Cl)cc23)cc1 (stereo partly drawn) [Example 50, methyl (4-(((2S)-1-(6-chloro-2-oxo-1,2-dihydrospiro[benzo[d][1,3]oxazine-4,3′-pyrrolidin]-1′-yl)-3-(naphthalen-2-yl)-1-oxopropan-2-yl)carbamoyl)phenyl)carbamate]",Ki,human Factor XIa,33.7 nM
same,Ki,Human plasma kallikrein,227 nM
"COC(=O)Nc1ccc(C(=O)N[C@@H](CCc2ccccc2)C(=O)N2CCC3(C2)OC(=O)Nc2ccc(Cl)cc23)cc1 (stereo partly drawn) [Example 52, methyl (4-(((2S)-1-(6-chloro-2-oxo-1,2-dihydrospiro[benzo[d][1,3]oxazine-4,3′-pyrrolidin]-1′-yl)-1-oxo-4-phenylbutan-2-yl)carbamoyl)phenyl)carbamate]",Ki,human Factor XIa,17.6 nM
same,Ki,Human plasma kallikrein,92.8 nM
"COC(=O)Nc1ccc(C(=O)N[C@@H](Cc2cncn2C)C(=O)N2CCC[C@@]3(C2)OC(=O)Nc2ccc(Cl)cc23)cc1 [Example 53, methyl (4-(((S)-1-((R)-6-chloro-2-oxo-1,2-dihydrospiro[benzo[d][1,3]oxazine-4,3′-piperidin]-1′-yl)-3-(1-methyl-1H-imidazol-5-yl)-1-oxopropan-2-yl)carbamoyl)phenyl)carbamate]",Ki,human Factor XIa,15.5 nM
same,Ki,Human plasma kallikrein,2.21 nM
"COC(=O)Nc1ccc(C(=O)N[C@@H](CCSC)C(=O)N2CCC[C@@]3(C2)OC(=O)Nc2ccc(Cl)cc23)cc1 [Example 57, methyl (4-(((S)-1-((R)-6-chloro-2-oxo-1,2-dihydrospiro[benzo[d][1,3]oxazine-4,3′-piperidin]-1′-yl)-4-(methylthio)-1-oxobutan-2-yl)carbamoyl)phenyl)carbamate]",Ki,human Factor XIa,4.9 nM
same,Ki,Human plasma kallikrein,1.43 nM
"COC(=O)Nc1ccc(C(=O)N[C@@H](Cc2cscn2)C(=O)N2CCC[C@@]3(C2)OC(=O)Nc2ccc(Cl)cc23)cc1 [Example 58, methyl (4-(((S)-1-((R)-6-chloro-2-oxo-1,2-dihydrospiro[benzo[d][1,3]oxazine-4,3′-piperidin]-1′-yl)-1-oxo-3-(thiazol-4-yl)propan-2-yl)carbamoyl)phenyl)carbamate]",Ki,human Factor XIa,4.04 nM
same,Ki,Human plasma kallikrein,< 1.36 nM
"COC(=O)Nc1ccc(C(=O)N[C@@H](CC(C)C)C(=O)N2CCC[C@@]3(C2)OC(=O)Nc2ccc(Cl)cc23)cc1 [Example 60, methyl (4-(((S)-1-((R)-6-chloro-2-oxo-1,2-dihydrospiro[benzo[d][1,3]oxazine-4,3′-piperidin]-1′-yl)-4-methyl-1-oxopentan-2-yl)carbamoyl)phenyl)carbamate]",Ki,human Factor XIa,48.9 nM
same,Ki,Human plasma kallikrein,3.31 nM
